Laboratory results reported in patent publication US8278459B2, “UV-filter compounds” (DSM IP Assets B.V., priority 2007, dated 2012).

Experiment: Skin binding experiment (pig ear skin, THF extraction, HPLC recovery)
Assay type: in vitro ADME
Settings: for % UV filter bound to the skin: 2% (w) THF solution applied topically at 1 mg/cm^2, 32±1° C., duplicates
Protocol: The skin binding properties were determined by the following experiment. Skin samples (1 cm^2 each) were prepared by punching out from pig ear. The skin samples were placed in a 2 mL eppendorf plastic tube. The studied compounds were applied topically as a 2% (w) THF solution on the skin surface at a mean dose rate of 1 mg/cm^2. The samples were placed in a heatingblock and maintained at a normal skin temperature of 32±1° C. for the duration of the exposure period. At the end of the experiment, after 24 hours, respectively 72 h, each skin probe was extracted by shaking with 1000 μl of THF for 1 min and the resulting solution was analyzed by HPLC. The experiments were run in duplicates.
Compounds B and was tested for their skin-binding capacity, while compound A (described in Kawashita, Y; Nakamichi, N.; Kawabata, H.; Hayashi, M. Org. Lett. 2003, 5, 3713-3715) was used as a non-binding reference.
Skin fraction samples were injected into the HPLC system using DAD detection with the following conditions:
The % of UV filter bound to the skin was determined by calculation of the recovery rate using the following equation: […]

Cc1ccc(-c2nc3ccccc3o2)cc1 [Compound A, reference compound]
% UV filter bound to the skin (After 24 h): 36.3%
% UV filter bound to the skin (After 72 h): 61.1%

O=C(CO)C(O)C(O)c1ccc(-c2nc3ccccc3o2)cc1 (centres unmarked) [Compound B, 4-(4-Benzoxazol-2-yl-phenyl)-1,3,4-trihydroxy-butan-2-one]
% UV filter bound to the skin (After 24 h): 96.6%
% UV filter bound to the skin (After 72 h): 100%
adhesion to the skin (in words) (compared to the non-binding compound A): significant adhesion to the skin
